Reference: patent US8952204B2, “Sulfonium salt, method for producing the same, and photoacid generator” (DSP Gokyo Food & Chemical Co., Ltd., priority 2012, dated 2015)

Experiments:
[1] = Measurement of ultraviolet-visible absorption spectrum (molecular extinction coefficient at 365 nm); assay type: physicochemical; settings: 1×10^−4 mol/L acetonitrile solution; 50 to 2000 evaluated as desirable
Experimental: (Measurement of Ultraviolet-Visible Absorption Spectrum)
A 1×10^−4 mol/L acetonitrile solution of each test compound was prepared, and the molecular extinction coefficient at 365 nm in the ultraviolet-visible absorption spectrum was measured using an ultraviolet-visible spectrophotometer (UV-2400PC, manufactured by SHIMADZU CORPORATION). […] Considering that light should be transmitted to a deep portion in a thick film, compounds with a molecular extinction coefficient at 365 nm (i-line) of 50 to 2000 were evaluated as a compound having desirable properties.

[2] = Solubility in PGMEA (amount of PGMEA necessary for dissolving 100 mg test compound); assay type: physicochemical; settings: 20±5° C., after 30 minutes, 16 mL or less evaluated as desirable
Experimental: To the sulfonium salt compound to be measured (test compound; 100 mg each) was added PGMEA, and a strong shaking for 30 seconds was repeated at 20±5° C. every 5 minutes. In this way, the amount of PGMEA necessary for dissolving the test compound after 30 minutes was measured. Here, “dissolving” means to reach the state where no insoluble matter can be observed by visual inspection, specifically, means that the resultant solution is clear, or a mixture in an arbitrary ratio becomes transparent.
In Table 1 below, the compounds that require PGMEA in an amount of 16 mL or less were evaluated as having desirable properties as a current target compound.

SMILES	Molecular Extinction Coefficient (365 nm) [1]	PGMEA (mL): amount of PGMEA necessary for dissolving test compound [2] [mL]
CC1(C)[C@@H]2CC[C@@]1(CS(=O)(=O)[O-])C(=O)C2.c1ccc([S+](c2ccccc2)c2ccccc2)cc1 [Comparative Example Compound 1, triphenylsulfonium (1S,4R)-7,7-dimethyl-2-oxobicyclo[2.2.1]heptane-1-yl methanesulfonate]	0	>160
CC1(C)[C@@H]2CC[C@@]1(CS(=O)(=O)[O-])C(=O)C2.CCCCOc1ccc2ccc(OCCCC)c([S+](CCCC)CCCC)c2c1 [Example Compound 1, 1-(2,7-di-n-butoxynaphthyl)di-n-butyl sulfonium (1S,4R)-7,7-dimethyl-2-oxobicyclo[2.2.1]heptane-1-yl methanesulfonate]	640	11
